Measurements published in US11299515B2, “Optimized peptides for targeting human nerves and their use in image guided surgery, diagnostics and therapeutic” (The Regents of the University of California, priority 2017, dated 2022).
Entries after “also recorded” stand apart in the source; their conditions may differ. Residues, ends and D or L forms follow the SMILES beside them. *: point of attachment. Fluorescein(5-Mal) = O=C1OC2(c3ccc(O)cc3Oc3cc(O)ccc32)c2ccc(N3C(=O)CC(*)C3=O)cc21

Columns and labels:
[1] = Stability in ex-vivo human plasma (LC-MS); details: 37° C., 5 min vs 2 hours
Description: An equal volume of 1:1 acetonitrile:water with 2% acetic acid is added to precipitate the protein matter, supernatant is extracted for analysis by LC-MS on a C18 reverse phase column with gradient of 9:1 H2O+0.05% TFA:Acetonitrile+0.05% TFA to 1:9 H2O+0.05% TFA:Acetonitrile+0.05% TFA in 20 min.
The bladder was drained with a syringe and sutured to avoid spillage and contamination around prostate. […] Stability of FAM-HNP401 in human plasma at 5 minutes and 2 hours was determined by incubation of peptide dye conjugate in human serum prior to analysis by mass spectrometry.

[2] = system: human laryngeal nerve; assay: Dose response by topical application on human laryngeal nerve sections; assay type: binding
Description: FIG. 25: Differential binding of nerve binding peptides to human and mouse tissue. Determination of optimal dose response by topical application of FAM-HNP401 on human laryngeal nerve sections at final concentration of 375 μM (A), 100 μM (B), 50 μM (C), 10 μM (D) and 1 μM (E), imaged with confocal microscopy with identical parameters and levelled equally for comparison. ** brightened 2 fold for viewing. Nerve to muscle contrast at high concentration of 375 μM for FAM-NP41 (F and G) and FAM-HNP401 (H and I) imaged on confocal microscopy and levelled for direct comparison. Mouse facial nerve (red arrows) with surrounding muscle treated with 375 μM (J), 100 μM (K) of FAM-NP41 or 375 μM (L), 100 μM (M) of FAMHNP401.
Dose response data set of FAM-HNP401 on human nerve tissue (FIG. 25:A-E) was acquired with 488 nm laser line, 10μm sections on glass at 10× magnification, 0.45 NA air objective lens. Gain set to 40, power set to 3% of laser power, pixel dwell value of 1.2 μs, aperture size of 1.1 μm and a pixel size of 0.3 μm/px with a 2 k by 2 k size image.
Human sural nerve, antebrachial nerve and laryngeal nerve and temporalis muscle were obtained under IRB protocol number 130837 for Dr. Quyen Nguyen. Human peripheral nerves (typically sural) were obtained from patients undergoing nerve resection procedures. […]

[3] = system: sciatic nerve; assay type: in vivo, mice; details: 450 nmols i.v., SKH1 mice
Description: Either 150 or 450 nmoles of fluorescein labeled synthetic peptides were injected intravenously into mice. After a 2 hour waiting period for washout of nonspecific binding, mice were anesthetized and skin incisions were made over the dorsal surface of the hind legs to expose the sciatic nerve. Brightfield and fluorescent images were obtained with a dissecting microscope using Metamorph software (FIG. 1). Quantitation of fluorescence of nerves and adjacent non-nerve tissue was performed with Image J (FIG. 2). Peptides were also topically applied to human nerve sections. Nerves were freshly frozen in OTC prior to sectioning. Peptides were topically applied at concentration at 300 uM with images being shown for HNP401, HNP402, HNP404 and previous reported nerve binding peptides NP41 (FIG. 3)). Also shown are images for variants HNP301 ([…]) and NP124. NP713 was also tested and has not reported in a publication. NP713, is a derivative of NP41 with sequence […] that was enriched after 7 rounds of selection against mouse tissue, and was also found after 4 rounds of selection against human tissue. […] All D-amino acid controls for NP-41 and NP713 and non peptide conjugated carboxyfluorescein, are also shown. […] HNP401 was then tested for labeling of rat sciatic and rat prostate cavernosal nerve in-vivo. […] FIGS. 6 and 7 show in-vivo labeling of rat prostate cavernosal nerve with comparison to white light visualization.
Following anesthesia with intra-peritoneal injection of ketamine (80 mg/kg) and midazolam (40 mg/kg), FAM-NP41 or its variants were administered into mice retro-orbitally. After a washout period of 2-4 hours, the animals were anesthetized with ketamine (50 mg/ml) and xylazine (20 mg/ml). The bladder and prostate were exposed through a midline abdominal incision. The autonomic nerve along the cavernosal vessel in the prostate was imaged and recorded using a custom-made surgical imaging system. This system is a modified from Olympus MVX10 scope capable of hi-resolution fluorescence, RGB reflectance and realtime overlay with zoom from 0.6 to 5.7 cm field of view. Image) was used for quantitative analysis of nerve contrast for each peptide dye conjugate tested. Images of autonomic nerve in prostate were selected from the recorded files and magnified 300-400% prior to selection of ROI and measurement. Nerves and adjacent non-nerve tissues ROIs were hand-selected using polygonal selection tool at the same location from both of reflectance and fluorescence images. The mean and standard deviation of the pixel intensities within the selected areas were compared for nerves (mean=In, SD=σn) and adjacent background tissue (mean=Ib, SD=σb). Nerve to non-nerve contrast was calculated after background subtraction with formula |In−Ib|/(σn^2+σm^2)^0.5. For imaging the nerves in the prostate gland of male rats peptide dye conjugate were injected retro-orbitally. FAM-HNP401 was injected at a concentration of 13 mgs/kg followed by imaging after 15 minutes or alternatively a dose of 52 mgs/kg was used with imaging after 3 hours. Live animal surgery was performed under a ketamine-xylazine cocktail according to IACUC protocol. Sterile technique was used to expose the prostate; bladder was drained with a small syringe and sutured. The surgical field was washed with sterile saline prior to imaging. Mann-Whitney test was used to analyze data for both mice and rats to compare nerve intensity and nerve to non-nerve contrast between white light reflectance and fluorescence.

Structure (SMILES): CC(=O)N[C@@H](CO)C(=O)NCC(=O)N[C@@H](CCC(N)=O)C(=O)N[C@H](C(=O)N1CCC[C@H]1C(=O)N[C@@H](Cc1c[nH]c2ccccc12)C(=O)N[C@@H](CCC(=O)O)C(=O)N[C@@H](CCC(=O)O)C(=O)N1CCC[C@H]1C(=O)N[C@@H](Cc1ccc(O)cc1)C(=O)N[C@@H](Cc1ccc(O)cc1)C(=O)N[C@H](C(=O)N[C@H](C(=O)N[C@@H](CCCCN)C(=O)N[C@@H](CCCCN)C(=O)N[C@@H](CO)C(=O)N[C@@H](CO)C(=O)NCC(=O)NCC(=O)N[C@@H](CSC1CC(=O)N(c2ccc3c(c2)C(=O)OC32c3ccc(O)cc3Oc3cc(O)ccc32)C1=O)C(N)=O)C(C)C)C(C)C)C(C)C (stereo partly drawn) [FAM-HNP401] (Ac-SGQVPWEEPYYVVKKSSGGC(Fluorescein(5-Mal))-NH2; N-terminus and C-terminus assumed)
- stability in human plasma [1]: remain intact at 2 hours; also recorded: stable
- concentration giving optimal nerve contrast ([2]; topical 1 to 375 μM): 50 to 100 µM
- concentration at which signal from human nerve saturates ([2]; topical up to 375 μM): ≤ 100 µM
- signal intensity for in-vivo binding to mouse sciatic nerve compared to FAM-NP41 [3]: 2.3 ×
- sciatic nerve fluorescent intensity compared to NP41 ([3]; 2 h post injection): 2.3 fold
- nerve to surrounding muscle contrast ([3]; mouse thigh): 5.79±0.81
